Laboratory results: patent US20230115176A1 (Ra Pharmaceuticals, Inc., priority 2019, published 2023)

Target: T1, Human C5 (Homo sapiens, UniProt P01031)
T1 construct: purchased Complement Technology
Experiment: Red blood cell (RBC) hemolysis assay, luminescent (Example 28, Table 32)
Type: cell-based
Conditions: sheep EA cells, 1.5% C5-depleted human serum, 0.5 nM human C5, 1 hour at 37° C., luminescence (Table 32)
Procedure: Sheep red blood cells coated with rabbit anti-sheep erythrocyte antiserum (EA cells; Complement Technology, Tyler, Tex.) were used to assay compound inhibitory activity of the classical complement activation pathway. Briefly, the EA cells were washed once and resuspended in the same volume of GVB++ buffer (Complement Technology, Tyler, Tex.). 25 μL of EA cells were then distributed into each well of 384-well tissue culture plates using Apricot iPipette Pro (Apricot Designs; Covina, Calif.). Compounds were tested in 10 points of final concentrations ranging from 16.67 μM to 1.65 μM in a 6-fold titration series. Compounds were dispensed into 384-well plates from 6.7 mM and 3.35 μM DMSO working stocks using an HP Digital Dispenser (HP; Corvallis, Oreg.). The reactions also contained 1.5% (v/v) C5-depleted human serum (Complement Technology). Hemolysis was induced by addition of human C5 (Complement Technology) at a concentration of 0.5 nM and plates were incubated for 1 hour at 37° C. in a cell culture incubator. The extent of hemolysis was measured by ability of released hemoglobin to catalyze luminol in the presence of hydrogen peroxide. Luminescence was then measured using a plate reader. Luminescence measurements were used to prepare a dose-response curve. From the curve, the half maximal inhibitory concentration (IC50) for each compound was determined, where the IC50 represents the concentration of each compound needed to reduce red blood cell hemolysis by half.

T1 sequence (P01031 19-1676): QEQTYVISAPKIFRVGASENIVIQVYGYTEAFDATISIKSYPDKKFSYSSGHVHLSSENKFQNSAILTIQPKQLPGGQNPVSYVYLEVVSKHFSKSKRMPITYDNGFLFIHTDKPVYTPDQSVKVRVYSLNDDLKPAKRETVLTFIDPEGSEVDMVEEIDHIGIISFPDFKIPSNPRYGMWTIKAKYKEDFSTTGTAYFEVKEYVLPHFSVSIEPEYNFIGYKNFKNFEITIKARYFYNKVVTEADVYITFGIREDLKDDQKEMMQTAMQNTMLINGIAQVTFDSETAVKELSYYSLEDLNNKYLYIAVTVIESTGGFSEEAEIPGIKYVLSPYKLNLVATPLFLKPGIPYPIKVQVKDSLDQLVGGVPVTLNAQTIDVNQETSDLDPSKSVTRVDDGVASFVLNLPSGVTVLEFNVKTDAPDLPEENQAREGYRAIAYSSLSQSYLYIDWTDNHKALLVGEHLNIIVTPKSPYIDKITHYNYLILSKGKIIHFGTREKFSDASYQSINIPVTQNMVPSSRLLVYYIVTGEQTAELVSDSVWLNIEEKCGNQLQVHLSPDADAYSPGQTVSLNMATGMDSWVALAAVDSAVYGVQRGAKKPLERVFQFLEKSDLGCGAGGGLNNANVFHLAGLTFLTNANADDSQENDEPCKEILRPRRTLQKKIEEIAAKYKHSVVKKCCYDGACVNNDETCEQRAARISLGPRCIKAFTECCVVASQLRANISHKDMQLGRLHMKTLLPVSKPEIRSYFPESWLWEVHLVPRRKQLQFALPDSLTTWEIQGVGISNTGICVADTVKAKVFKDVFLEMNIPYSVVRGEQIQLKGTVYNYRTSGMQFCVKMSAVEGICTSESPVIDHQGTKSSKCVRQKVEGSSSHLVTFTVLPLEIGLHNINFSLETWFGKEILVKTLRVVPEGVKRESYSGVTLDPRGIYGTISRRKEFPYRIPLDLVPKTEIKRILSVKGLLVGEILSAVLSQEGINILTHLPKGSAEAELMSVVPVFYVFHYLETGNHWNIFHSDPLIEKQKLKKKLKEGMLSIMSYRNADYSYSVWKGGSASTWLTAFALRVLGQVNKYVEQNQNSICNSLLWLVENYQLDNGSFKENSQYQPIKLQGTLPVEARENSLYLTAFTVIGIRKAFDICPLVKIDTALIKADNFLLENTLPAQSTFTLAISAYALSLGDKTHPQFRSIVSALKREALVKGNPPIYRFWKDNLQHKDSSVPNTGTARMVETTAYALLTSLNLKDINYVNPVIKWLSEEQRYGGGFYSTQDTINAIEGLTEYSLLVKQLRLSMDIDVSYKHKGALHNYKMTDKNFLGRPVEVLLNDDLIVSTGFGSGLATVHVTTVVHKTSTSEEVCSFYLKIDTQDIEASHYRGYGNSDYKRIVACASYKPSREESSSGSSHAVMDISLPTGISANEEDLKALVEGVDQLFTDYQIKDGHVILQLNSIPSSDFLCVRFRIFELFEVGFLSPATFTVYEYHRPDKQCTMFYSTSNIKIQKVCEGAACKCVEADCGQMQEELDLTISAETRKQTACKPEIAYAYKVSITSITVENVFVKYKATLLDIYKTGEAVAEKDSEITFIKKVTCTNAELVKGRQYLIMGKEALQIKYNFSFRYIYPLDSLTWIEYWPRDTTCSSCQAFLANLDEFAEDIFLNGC

Row | Structure (SMILES) | IC50
1 | COc1cc(CC(=O)N[C@@H]2CNC[C@@H]2F)ccc1CN1C(=O)N(c2ccc(OC)c(OCCCC3CC3)c2)CC[C@@H]1C [SC0130] | 1.7 nM
2 | CCCCCOc1cc(N2CC[C@H](C)N(Cc3ccnc4c3c(Cl)cn4CCOCCOCCOC)C2=O)ccc1OC [SC0131] | 1.7 nM
3 | CCCCCOc1cc(N2CC[C@H](C)N(Cc3cccc4c3c(Cl)c(C)n4CC(=O)N(C)C)C2=O)ccc1OC [SC0132] | 1.7 nM
4 | CCCCCOc1cc(N2CC[C@H](C)N(Cc3ccnc4c3c(Cl)cn4CC(=O)N3CC(O)(C(F)(F)F)C3)C2=O)ccc1OC [SC0133] | 1.7 nM
5 | COc1cc(CC(=O)N(C)C)ccc1CN1C(=O)N(c2ccc(OC)c(OCCCC3CC3)c2)CC[C@@H]1C [SC0135] | 1.8 nM
6 | COc1cc(CC(=O)N[C@@H]2CN(CCO)C[C@@H]2F)ccc1CN1C(=O)N(c2ccc(OC)c(OCCCC3CC3)c2)CC[C@@H]1C [SC0136] | 1.8 nM
7 | COc1cc(Cc2cnccn2)ccc1CN1C(=O)N(c2ccc(OC)c(OCCCC3CC3)c2)CC[C@@H]1C [SC0138] | 1.8 nM
8 | COc1cc(CC(=O)N2CCOCC2)ccc1CN1C(=O)N(c2ccc(OC)c(OCCCC3CC3)c2)CC[C@@H]1C [SC0139] | 1.9 nM
9 | COc1cc(CC(=O)N2CC[C@@H](N(C)C)C2)ccc1CN1C(=O)N(c2ccc(OC)c(OCCCC3CC3)c2)CC[C@@H]1C [SC0140] | 2.1 nM
10 | CCN1CC[C@H](NC(=O)Cc2ccc(CN3C(=O)N(c4ccc(OC)c(OCCCC5CC5)c4)CC[C@@H]3C)c(OC)c2)C1 [SC0141] | 2.1 nM
11 | COc1cc(CC(=O)N2CCOC(CN(C)C)C2)ccc1CN1C(=O)N(c2ccc(OC)c(OCCCC3CC3)c2)CC[C@@H]1C (stereo partly shown) [SC0142] | 2.1 nM
12 | CCCCCOc1cc(N2CC[C@H](C)N(Cc3ccnc4c3c(Cl)cn4CC(=O)N[C@H]3CCNC3)C2=O)ccc1OC [SC0143] | 2.1 nM
13 | COc1ccc(N2CC[C@H](C)N(Cc3cccc4c3c(Cl)cn4CC(=O)N(C)C)C2=O)cc1OCCCCC1CC1 [SC0145] | 2.1 nM
14 | CCCCCOc1cc(N2CC[C@H](C)N(Cc3ccnc4c3c(Cl)cn4CCOCCOC)C2=O)ccc1OC [SC0150] | 2.2 nM
15 | CCCCCOc1cc(N2CC[C@H](C)N(Cc3ccnc4c3c(Cl)cn4C3COC3)C2=O)ccc1OC [SC0151] | 2.2 nM
16 | COc1cc(CC(=O)N[C@H]2CNC[C@H]2F)ccc1CN1C(=O)N(c2ccc(OC)c(OCCCC3CC3)c2)CC[C@@H]1C [SC0152] | 2.3 nM
17 | CCCCCOc1cc(N2CC[C@H](C)N(Cc3ccc(CC(=O)N4CCOC(CN(C)C)C4)cc3OC)C2=O)ccc1OC (stereo partly shown) [SC0153] | 2.3 nM
18 | COc1cc(Cc2ncccn2)ccc1CN1C(=O)N(c2ccc(OC)c(OCCCC3CC3)c2)CC[C@@H]1C [SC0157] | 2.6 nM
19 | COc1cc(CC(=O)N[C@H]2CN(C(=O)OC(C)(C)C)C[C@H]2F)ccc1CN1C(=O)N(c2ccc(OC)c(OCCCC3CC3)c2)CC[C@@H]1C [SC0160] | 2.7 nM
20 | COc1cc(CC(=O)N(C)[C@H]2CCNC2)ccc1CN1C(=O)N(c2ccc(OC)c(OCCCC3CC3)c2)CC[C@@H]1C [SC0161] | 2.8 nM
21 | COc1cc(CC(=O)N(C)[C@H]2CCN(CCF)C2)ccc1CN1C(=O)N(c2ccc(OC)c(OCCCC3CC3)c2)CC[C@@H]1C [SC0165] | 3 nM
22 | COc1cc(CC(=O)N[C@@H]2CCNC2)ccc1CN1C(=O)N(c2ccc(OC)c(OCCCC3CC3)c2)CC[C@@H]1C [SC0166] | 3.1 nM
23 | CCCCCOc1cc(N2CC[C@H](C)N(Cc3ccc(CC(=O)N(C)C)cc3OC)C2=O)ccc1OC [SC0173] | 4.2 nM
24 | CCCCCOc1cc(N2CC[C@H](C)N(Cc3ccnc4c3c(Cl)cn4CC(=O)N(C)C)C2=O)c(F)cc1OC [SC0175] | 4.4 nM
25 | CCCCCOc1cc(N2C[C@H](CO)CN(Cc3ccc(CC(=O)N(C)C)cc3OC)C2=O)ccc1OC [SC0176] | 4.5 nM

Row | Structure (SMILES) | IC50
26 | COc1cc(CCO)ccc1CN1C(=O)N(c2ccc(OC)c(OCCCC3CC3)c2)CC[C@@H]1C [SC0180] | 4.9 nM
27 | CCCCCOc1cc(N2CC[C@H](C)N(Cc3cccc4c3c(Cl)c(Cl)n4CC(=O)N(C)C)C2=O)ccc1OC [SC0181] | 5.1 nM
28 | COc1cc(CCN2CCOCC2)ccc1CN1C(=O)N(c2ccc(OC)c(OCCCC3CC3)c2)CC[C@@H]1C [SC0182] | 5.2 nM
29 | COc1cc(CC(=O)N[C@@H]2CN(C(=O)OC(C)(C)C)C[C@@H]2F)ccc1CN1C(=O)N(c2ccc(OC)c(OCCCC3CC3)c2)CC[C@@H]1C [SC0185] | 5.7 nM
30 | COc1cc(CC(=O)N[C@@H]2CCN(C(=O)OC(C)(C)C)C2)ccc1CN1C(=O)N(c2ccc(OC)c(OCCCC3CC3)c2)CC[C@@H]1C [SC0187] | 6.1 nM
31 | COc1cc(CC(=O)N(C)[C@H]2CCN(C(=O)OC(C)(C)C)C2)ccc1CN1C(=O)N(c2ccc(OC)c(OCCCC3CC3)c2)CC[C@@H]1C [SC0188] | 6.4 nM
32 | CCCCCOc1cc(N2CC(CO)CN(Cc3ccc(CNC(C)=O)cc3OC)C2=O)ccc1OC (stereo not shown) [SC0189] | 7 nM
33 | COc1cc(CC(=O)N2CCCC2)ccc1CN1CC(C)CN(c2ccc(OC)c(OCCCC3CC3)c2)C1=O (stereo not shown) [SC0191] | 7.3 nM
34 | COc1cc(CC(=O)O)ccc1CN1C(=O)N(c2ccc(OC)c(OCCCC3CC3)c2)CC[C@@H]1C [SC0192] | 7.8 nM
35 | CCCCCOc1cc(N2C[C@H](C)CN(Cc3ccc(CC(=O)N4CCOCC4)cc3OC)C2=O)ccc1OC [SC0193] | 8.3 nM
36 | COc1cc(CC(=O)N(C)C)ccc1CN1CC(C)CN(c2ccc(OC)c(OCCCC3CC3)c2)C1=O (stereo not shown) [SC0194] | 8.5 nM
37 | CCCCCOc1cc(N2CC[C@H](C)N(Cc3cccc(OC)c3O)C2=O)ccc1OC [SC0195] | 8.5 nM
38 | COc1cc(CCN2CC3(COC3)C2)ccc1CN1C(=O)N(c2ccc(OC)c(OCCCC3CC3)c2)CC[C@@H]1C [SC0196] | 8.6 nM
39 | CCCCCOc1cc(N2CC[C@H](C)N(Cc3ccc(CCO)cc3OC)C2=O)ccc1OC [SC0197] | 9.1 nM
40 | CCCCCOc1cc(N2CC(C)CN(Cc3ccc(CNC(C)=O)cc3OC)C2=O)ccc1OC (stereo not shown) [SC0198] | 9.7 nM
41 | CCCCCOc1cc(N2CC(C(N)=O)CN(Cc3ccc(CNC(C)=O)cc3OC)C2=O)ccc1OC (stereo not shown) [SC0199] | 9.8 nM
42 | CCCCCOc1cc(N2CC(C)CN(Cc3ccc(CNC(=O)OC)cc3OC)C2=O)ccc1OC (stereo not shown) [SC0200] | 9.9 nM
43 | CCCCCOc1cc(N2C[C@@H](C)CN(Cc3ccc(CC(=O)N4CCOCC4)cc3OC)C2=O)ccc1OC [SC0201] | 10 nM
44 | COc1cc(CC(=O)N(C)[C@@H]2CCN(C(=O)OC(C)(C)C)C2)ccc1CN1C(=O)N(c2ccc(OC)c(OCCCC3CC3)c2)CC[C@@H]1C [SC0202] | 10.1 nM
45 | COc1ccc(N2CC[C@H](C)N(Cc3cccc4c3ccn4CC(=O)N(C)C)C2=O)cc1OCCCCC1CC1 [SC0203] | 10.2 nM
46 | COc1ccc(N2CC[C@H](C)N(Cc3cccc4c3ccn4CC(=O)N(C)C)C2=O)cc1OCCCC1CCC1 [SC0205] | 11.4 nM
47 | CCCCCOc1cc(N2C[C@@H](CO)CN(Cc3ccc(CC(=O)N(C)C)cc3OC)C2=O)ccc1OC [SC0206] | 11.7 nM
48 | CCCCCOc1cc(N2C[C@H](C)CN(Cc3ccc(CC(=O)N4CCCC4)cc3OC)C2=O)ccc1OC [SC0207] | 11.8 nM
49 | COc1ccc(N2CC[C@H](C)N(Cc3ccnc4c3ccn4CC(=O)N(C)C)C2=O)cc1OCCCC1CC1 [SC0208] | 12.6 nM
50 | CCCCCOc1cc(N2C[C@H](C)CN(Cc3ccc(CC(=O)N(C)C)cc3OC)C2=O)ccc1OC [SC0209] | 12.6 nM

Row | Structure (SMILES) | IC50
51 | CCCCCOc1cc(N2C[C@@H](C)CN(Cc3ccc(CC(=O)N(C)C)cc3OC)C2=O)ccc1OC [SC0210] | 15.1 nM
52 | CCCCCOc1cc(N2CC[C@@H](C)N(Cc3cccc4c3ccn4CC(=O)OCC)C2=O)ccc1OC [SC0211] | 15.6 nM
53 | CCCCCOc1cc(N2C[C@@H](C)CN(Cc3ccc(CC(=O)N4CCCC4)cc3OC)C2=O)ccc1OC [SC0212] | 16.5 nM
54 | CCCCCOc1cc(N2C[C@@H](C(N)=O)CN(Cc3cc(F)ccc3OC)C2=O)ccc1OC [SC0213] | 18.2 nM
55 | CCCCCOc1cc(N2CC[C@@H](C)N(Cc3cccc4[nH]ccc34)C2=O)ccc1OC [SC0214] | 18.2 nM
56 | CCCCCOc1cc(N2C[C@H](C(N)=O)CN(Cc3cc(F)ccc3OC)C2=O)ccc1OC [SC0215] | 18.6 nM
57 | COc1cc(CC(=O)N[C@H]2CCN(C(=O)OC(C)(C)C)C2)ccc1CN1C(=O)N(c2ccc(OC)c(OCCCC3CC3)c2)CC[C@@H]1C [SC0216] | 19.6 nM
58 | CCCCCOc1cc(N2C[C@H](C(=O)NC)CN(Cc3cc(F)ccc3OC)C2=O)ccc1OC [SC0217] | 25.3 nM
59 | CCCCCOc1cc(N2CC[C@H](C)N(Cc3cccc4c3cc(C)n4CC(=O)N(C)C)C2=O)ccc1OC [SC0218] | 34.4 nM
60 | CCCCCOc1cc(N2CC[C@H](C)N(Cc3ccnc4[nH]ccc34)C2=O)ccc1OC [SC0219] | 40 nM
61 | CCCCCOc1cc(N2CC(C)(C)CN(Cc3ccc(CC(=O)N(C)C)cc3OC)C2=O)ccc1OC [SC0220] | 42.1 nM
62 | COc1cc(CC(=O)O)ccc1CN1CC(C)CN(c2ccc(OC)c(OCCCC3CC3)c2)C1=O (stereo not shown) [SC0221] | 54.4 nM
63 | CCCCCOc1cc(N2CC(CO)CN(Cc3ccc(CC(=O)O)cc3OC)C2=O)ccc1OC (stereo not shown) [SC0222] | 74.1 nM
64 | CCCCCOc1cc(N2C[C@@H](C(=O)NC)CN(Cc3cc(F)ccc3OC)C2=O)ccc1OC [SC0223] | 96.9 nM
65 | CCCCCOc1cc(N2CC(CO)CN(Cc3ccc(C#N)cc3OC)C2=O)ccc1OC (stereo not shown) [SC0224] | 98.5 nM
66 | COc1ccc(N2CC[C@H](C)N(Cc3cccc4c3ccn4S(=O)(=O)c3ccc(C)cc3)C2=O)cc1OCCCC1CC1 [SC0225] | 110 nM
67 | C=C1CN(Cc2ccc(C#N)cc2OC)C(=O)N(c2ccc(OC)c(OCCCCC)c2)C1 [SC0226] | 132 nM
68 | CCCCCOc1cc(N2CC[C@@H](C)N(Cc3cccc4c3ccn4CC(=O)O)C2=O)ccc1OC [SC0227] | 135 nM
69 | CCCCCOc1cc(N2CC(C)CN(Cc3ccc(C#N)cc3OC)C2=O)ccc1OC (stereo not shown) [SC0228] | 211 nM
70 | CCCCCOc1cc(N2CC(COCc3ccccc3)CN(Cc3ccc(CC(=O)O)cc3OC)C2=O)ccc1OC (stereo not shown) [SC0229] | 371 nM
71 | CCCCCOc1cc(N2CC[C@@H](C)N(Cc3cccc4c3ccn4S(=O)(=O)c3ccc(C)cc3)C2=O)ccc1OC [SC0230] | 703 nM
72 | CCCCCOc1cc(N2CC[C@@H](C)NC2=O)ccc1OC [SC0231] | 2660 nM
73 | CCCCCOc1cc(N2CC(COCc3ccccc3)CN(Cc3ccc(Br)cc3OC)C2=O)ccc1OC (stereo not shown) [SC0232] | 3120 nM
